The Ki is the equilibrium dissociation constant of an inhibitor or competing ligand from its target. Usually stoichiometry N stands for the number of molecules, sites or subunits per partner or assembly. As a reminder, the kcat is the maximal rate divided by the concentration of active sites. As a reminder, the kcat/Km is the turnover number divided by the Michaelis constant.

The record followed here is paper PMC6465285, “Arsinothricin, an arsenic-containing non-proteinogenic amino acid analog of glutamate, is a broad-spectrum antibiotic” (Communications Biology, 2019).

Series [1] has as its target T1, SvPAT (phosphinothricin N-acetyltransferase) (Streptomyces viridochromogenes, UniProt Q57146).
T1 construct: gene pat
In words: DTNB acetyltransferase assay, Km. The note with it: read-out: Specific activity (nmol s^-1 mg^-1 PpArsN1) / Km.

The target of series [2] is T2, PpArsN1 (ArsN1 N-acetyltransferase) (Pseudomonas putida, UniProt Q88LK7).
T2 construct: gene PP_1924

For series [3], the target named is T2, PpArsN1 (ArsN1 N-acetyltransferase). This is another data set of the same source.
Series [4] deals with T3, glutamine synthetase (Escherichia coli, UniProt P0A9C5).
T3 construct: gene glnA
T3 sequence (P0A9C5 2-469): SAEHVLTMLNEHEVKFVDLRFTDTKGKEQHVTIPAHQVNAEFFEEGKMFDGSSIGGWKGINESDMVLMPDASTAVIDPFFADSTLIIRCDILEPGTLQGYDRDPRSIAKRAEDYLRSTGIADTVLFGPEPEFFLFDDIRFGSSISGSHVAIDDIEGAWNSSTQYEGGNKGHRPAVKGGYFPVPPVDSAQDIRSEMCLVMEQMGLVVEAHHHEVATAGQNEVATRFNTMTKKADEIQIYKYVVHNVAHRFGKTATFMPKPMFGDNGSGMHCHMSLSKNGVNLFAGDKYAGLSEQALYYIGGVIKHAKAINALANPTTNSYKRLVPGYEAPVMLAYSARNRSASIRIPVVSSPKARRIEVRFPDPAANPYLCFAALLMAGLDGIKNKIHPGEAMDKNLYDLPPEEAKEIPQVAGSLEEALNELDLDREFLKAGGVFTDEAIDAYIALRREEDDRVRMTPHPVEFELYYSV
The experiment in a line: coupled ADP/NADH oxidation assay with purified enzyme. The series is classed as biochemical.

Series [5] deals with T3, glutamine synthetase. The experiment in a line: coupled ADP/NADH oxidation assay, Km. The format is biochemical.
Series [6] deals with PpArsN1, arsinothricin N-acetyltransferase ArsN1 of Pseudomonas putida KT2440 (Pseudomonas putida KT2440). In words: SEC; size-exclusion chromatography of purified PpArsN1 in solution (Supplementary Figure 2); conditions not given.
For series [7], the system named is CP(=O)(O)CC[C@H](N)C(=O)O. The experiment in a line: purified protein. The note with it: acetyl coenzyme A.

T1 sequence (Q57146 whole entry, looked up): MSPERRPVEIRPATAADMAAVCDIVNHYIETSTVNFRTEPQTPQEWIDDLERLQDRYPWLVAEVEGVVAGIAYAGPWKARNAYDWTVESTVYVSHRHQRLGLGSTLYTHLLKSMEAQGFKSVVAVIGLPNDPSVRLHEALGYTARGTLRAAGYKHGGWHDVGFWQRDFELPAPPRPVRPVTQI

On to `C[As](=O)(O)CC[C@H](N)C(=O)O` [AST, 2-amino-4-(hydroxymethylarsinoyl)butanoate], for which the Km in series [1] amounted to 12 ± 2 µM; in series [2], 11 ± 3 µM.

`CS(=N)(=O)CC[C@H](N)C(=O)O` (stereo partly drawn) [L-MSO, L-methionine sulfoximine]: the “Specific activity (nmol s^-1 mg^-1 PpArsN1) / Substrate” value in series [3] came out at 2.1 ± 0.1 nmol/s/mg.

The compound `CP(=O)(O)CC[C@H](N)C(=O)O` [L-PPT, 2-amino-4-(hydroxymethylphosphinyl)butanoate] registered an inhibition constant Ki in series [4] of 400 ± 150 nM.

For `N[C@@H](CCC(=O)O)C(=O)O` [L-glutamate], the Km in series [5] amounted to 2700 ± 600 µM.

In series [6], “PpArsN1, arsinothricin N-acetyltransferase ArsN1 of Pseudomonas putida KT2440 (enzyme)” had a stoichiometry N of 2.

“SvPAT (phosphinothricin N-acetyltransferase) (Streptomyces viridochromogenes DSM 40736)”: in series [7], the Km was determined as 47 ± 2 µM, the kcat was found to be 3.1 s⁻¹ and the kcat/Km came out at 66000 M⁻¹ s⁻¹.
